Test results taken from ChEMBL document CHEMBL1145498, “A systematic interaction map of validated kinase inhibitors with Ser/Thr kinases” (Proc Natl Acad Sci U S A, 2007).

Legend:
[1] = molecular target: Serine/threonine-protein kinase PAK 6 (Homo sapiens) (UniProt Q9NQU5)
[2] = molecular target: Ribosomal protein S6 kinase alpha-3 (Homo sapiens) (UniProt P51812)
[3] = molecular target: T1, Serine/threonine-protein kinase VRK3 (Homo sapiens) (UniProt Q8IV63)
T1 sequence (whole entry): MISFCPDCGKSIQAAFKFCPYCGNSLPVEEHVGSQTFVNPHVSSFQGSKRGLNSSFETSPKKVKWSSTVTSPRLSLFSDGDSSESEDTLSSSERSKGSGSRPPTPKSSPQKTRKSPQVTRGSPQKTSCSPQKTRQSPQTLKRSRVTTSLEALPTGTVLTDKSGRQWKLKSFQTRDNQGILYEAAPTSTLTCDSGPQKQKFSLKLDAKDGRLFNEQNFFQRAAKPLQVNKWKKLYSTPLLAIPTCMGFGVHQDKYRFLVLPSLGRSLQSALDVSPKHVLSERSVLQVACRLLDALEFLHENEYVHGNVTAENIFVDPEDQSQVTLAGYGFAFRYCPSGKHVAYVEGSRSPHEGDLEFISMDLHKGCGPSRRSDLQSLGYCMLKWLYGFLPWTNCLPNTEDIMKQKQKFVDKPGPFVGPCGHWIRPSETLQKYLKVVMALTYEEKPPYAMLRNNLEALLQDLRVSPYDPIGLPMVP

[4] = molecular target: Mitogen-activated protein kinase 11 (Homo sapiens, UniProt Q15759)
Mitogen-activated protein kinase 11, sequence (Q15759 whole entry): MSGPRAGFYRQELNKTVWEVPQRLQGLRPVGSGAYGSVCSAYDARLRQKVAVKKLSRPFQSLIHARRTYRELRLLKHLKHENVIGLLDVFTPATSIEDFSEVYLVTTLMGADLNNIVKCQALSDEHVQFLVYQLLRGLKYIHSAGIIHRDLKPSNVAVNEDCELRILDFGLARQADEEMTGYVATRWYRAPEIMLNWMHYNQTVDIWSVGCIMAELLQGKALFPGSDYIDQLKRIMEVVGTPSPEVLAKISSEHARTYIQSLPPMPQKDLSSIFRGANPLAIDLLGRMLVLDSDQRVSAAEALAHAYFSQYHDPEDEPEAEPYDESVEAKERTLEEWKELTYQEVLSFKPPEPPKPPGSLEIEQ

[5] = molecular target: T2, Dual specificity mitogen-activated protein kinase kinase 6 (Homo sapiens) (UniProt P52564)
T2 sequence (whole entry): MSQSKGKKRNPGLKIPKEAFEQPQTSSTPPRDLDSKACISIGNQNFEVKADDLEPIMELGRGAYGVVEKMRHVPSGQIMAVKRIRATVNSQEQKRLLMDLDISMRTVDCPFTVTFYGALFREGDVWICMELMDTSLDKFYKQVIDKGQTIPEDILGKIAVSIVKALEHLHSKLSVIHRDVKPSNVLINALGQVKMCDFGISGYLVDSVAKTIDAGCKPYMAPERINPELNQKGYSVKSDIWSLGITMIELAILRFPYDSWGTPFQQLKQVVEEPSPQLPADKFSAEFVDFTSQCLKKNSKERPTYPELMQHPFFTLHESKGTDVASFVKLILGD

[6] = molecular target: TRAF2 and NCK-interacting protein kinase (Homo sapiens) (UniProt Q9UKE5)
TRAF2 and NCK-interacting protein kinase (Homo sapiens), sequence (Q9UKE5 whole entry, looked up): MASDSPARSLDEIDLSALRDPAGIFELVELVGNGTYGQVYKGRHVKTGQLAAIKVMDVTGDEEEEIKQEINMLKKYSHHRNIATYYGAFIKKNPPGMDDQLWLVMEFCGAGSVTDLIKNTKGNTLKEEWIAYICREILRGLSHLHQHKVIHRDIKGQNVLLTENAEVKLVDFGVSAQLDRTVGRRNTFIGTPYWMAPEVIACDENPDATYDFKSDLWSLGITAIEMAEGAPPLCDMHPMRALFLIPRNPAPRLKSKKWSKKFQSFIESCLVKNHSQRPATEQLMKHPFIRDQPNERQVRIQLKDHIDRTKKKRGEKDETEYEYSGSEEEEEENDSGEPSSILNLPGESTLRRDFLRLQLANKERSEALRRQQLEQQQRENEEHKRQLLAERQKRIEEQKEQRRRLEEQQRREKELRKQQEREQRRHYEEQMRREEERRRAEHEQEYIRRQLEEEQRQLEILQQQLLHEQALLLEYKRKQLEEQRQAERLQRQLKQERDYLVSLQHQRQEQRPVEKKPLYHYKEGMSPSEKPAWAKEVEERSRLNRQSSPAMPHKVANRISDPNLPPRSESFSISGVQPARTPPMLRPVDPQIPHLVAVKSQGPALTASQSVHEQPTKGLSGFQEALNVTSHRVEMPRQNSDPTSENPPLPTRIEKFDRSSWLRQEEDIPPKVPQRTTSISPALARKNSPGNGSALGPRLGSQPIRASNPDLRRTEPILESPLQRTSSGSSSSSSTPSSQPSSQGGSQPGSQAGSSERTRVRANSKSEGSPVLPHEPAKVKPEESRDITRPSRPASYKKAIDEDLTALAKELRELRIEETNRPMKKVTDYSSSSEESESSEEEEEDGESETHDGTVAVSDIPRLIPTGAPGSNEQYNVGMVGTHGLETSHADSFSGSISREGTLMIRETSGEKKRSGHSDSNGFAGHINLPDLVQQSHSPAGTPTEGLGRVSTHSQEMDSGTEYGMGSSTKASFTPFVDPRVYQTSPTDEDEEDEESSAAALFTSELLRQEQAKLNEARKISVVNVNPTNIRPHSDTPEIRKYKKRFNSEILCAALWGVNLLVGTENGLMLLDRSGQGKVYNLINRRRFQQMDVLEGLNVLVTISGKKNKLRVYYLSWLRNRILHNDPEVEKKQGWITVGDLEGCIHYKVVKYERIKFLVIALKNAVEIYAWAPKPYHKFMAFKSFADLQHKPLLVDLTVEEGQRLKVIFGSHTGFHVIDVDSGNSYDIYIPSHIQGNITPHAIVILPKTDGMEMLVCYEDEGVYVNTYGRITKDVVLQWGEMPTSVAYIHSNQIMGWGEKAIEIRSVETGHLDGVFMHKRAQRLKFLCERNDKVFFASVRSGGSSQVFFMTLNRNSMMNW

[7] = molecular target: T3, Calcium/calmodulin-dependent protein kinase type IV (Homo sapiens) (UniProt Q16566)
T3 sequence (whole entry): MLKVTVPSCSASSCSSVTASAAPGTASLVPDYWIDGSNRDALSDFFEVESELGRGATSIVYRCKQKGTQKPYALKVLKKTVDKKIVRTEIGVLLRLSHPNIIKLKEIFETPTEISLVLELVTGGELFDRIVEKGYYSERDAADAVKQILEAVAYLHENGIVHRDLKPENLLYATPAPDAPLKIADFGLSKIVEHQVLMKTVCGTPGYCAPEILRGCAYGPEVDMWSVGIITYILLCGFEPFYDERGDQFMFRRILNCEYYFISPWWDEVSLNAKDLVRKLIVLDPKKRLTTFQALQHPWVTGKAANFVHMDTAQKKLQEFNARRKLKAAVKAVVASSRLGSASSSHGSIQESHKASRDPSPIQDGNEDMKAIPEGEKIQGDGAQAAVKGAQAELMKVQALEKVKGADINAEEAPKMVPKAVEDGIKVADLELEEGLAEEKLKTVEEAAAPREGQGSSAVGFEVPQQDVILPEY

[8] = molecular target: Calcium/calmodulin-dependent protein kinase type II subunit gamma (Homo sapiens) (UniProt Q13555)
[9] = molecular target: Serine/threonine-protein kinase RIO2 (Homo sapiens) (UniProt Q9BVS4)
[10] = molecular target: Serine/threonine-protein kinase pim-3 (Homo sapiens) (UniProt Q86V86)
[11] = molecular target: Serine/threonine-protein kinase VRK2 (Homo sapiens) (UniProt Q86Y07)
[12] = molecular target: Serine/threonine-protein kinase 10 (Homo sapiens) (UniProt O94804)
Serine/threonine-protein kinase 10 (Homo sapiens), sequence (O94804 whole entry, looked up): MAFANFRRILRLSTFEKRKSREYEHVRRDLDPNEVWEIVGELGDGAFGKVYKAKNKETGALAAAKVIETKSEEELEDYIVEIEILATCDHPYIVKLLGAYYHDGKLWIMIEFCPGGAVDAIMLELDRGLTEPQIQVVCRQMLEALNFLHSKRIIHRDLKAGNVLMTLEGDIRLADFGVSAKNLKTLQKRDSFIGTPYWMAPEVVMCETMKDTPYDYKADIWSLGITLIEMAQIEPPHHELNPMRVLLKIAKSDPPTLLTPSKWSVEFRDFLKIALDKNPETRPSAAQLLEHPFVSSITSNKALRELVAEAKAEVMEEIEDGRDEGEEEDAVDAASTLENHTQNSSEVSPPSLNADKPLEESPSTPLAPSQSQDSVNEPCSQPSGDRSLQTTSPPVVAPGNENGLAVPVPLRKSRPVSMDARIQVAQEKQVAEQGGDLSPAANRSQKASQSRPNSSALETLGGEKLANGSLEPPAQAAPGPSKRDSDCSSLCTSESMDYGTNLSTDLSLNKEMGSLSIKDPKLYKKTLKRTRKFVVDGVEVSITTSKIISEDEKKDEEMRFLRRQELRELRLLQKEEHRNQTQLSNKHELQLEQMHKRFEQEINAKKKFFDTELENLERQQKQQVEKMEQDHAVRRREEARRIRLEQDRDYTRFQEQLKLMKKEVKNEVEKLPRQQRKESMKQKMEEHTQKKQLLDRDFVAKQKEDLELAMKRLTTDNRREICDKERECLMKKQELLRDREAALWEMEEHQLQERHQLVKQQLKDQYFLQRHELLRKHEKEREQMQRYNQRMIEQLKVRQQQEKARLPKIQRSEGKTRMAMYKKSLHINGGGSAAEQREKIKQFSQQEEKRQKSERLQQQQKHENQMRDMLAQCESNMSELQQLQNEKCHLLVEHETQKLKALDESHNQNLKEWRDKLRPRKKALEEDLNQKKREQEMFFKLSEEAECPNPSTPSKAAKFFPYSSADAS

[13] = molecular target: T4, Serine/threonine-protein kinase 4 (Homo sapiens) (UniProt Q13043)
T4 sequence (whole entry): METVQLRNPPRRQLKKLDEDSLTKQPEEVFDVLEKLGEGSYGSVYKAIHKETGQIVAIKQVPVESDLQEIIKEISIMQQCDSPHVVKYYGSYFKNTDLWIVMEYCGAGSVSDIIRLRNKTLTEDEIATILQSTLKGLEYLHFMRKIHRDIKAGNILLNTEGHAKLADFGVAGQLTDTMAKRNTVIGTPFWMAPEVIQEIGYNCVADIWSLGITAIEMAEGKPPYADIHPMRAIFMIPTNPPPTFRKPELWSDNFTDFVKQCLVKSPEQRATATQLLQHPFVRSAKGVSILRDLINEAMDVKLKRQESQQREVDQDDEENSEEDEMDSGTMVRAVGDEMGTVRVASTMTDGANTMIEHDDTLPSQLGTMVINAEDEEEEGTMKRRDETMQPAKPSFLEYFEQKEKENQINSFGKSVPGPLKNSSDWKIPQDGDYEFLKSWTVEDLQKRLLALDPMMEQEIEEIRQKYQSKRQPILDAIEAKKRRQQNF

[14] = molecular target: Serine/threonine-protein kinase 25 (Homo sapiens) (UniProt O00506)
[15] = molecular target: Serine/threonine-protein kinase PAK 5 (Homo sapiens) (UniProt Q9P286)
Serine/threonine-protein kinase PAK 5 (Homo sapiens), sequence (Q9P286 whole entry, looked up): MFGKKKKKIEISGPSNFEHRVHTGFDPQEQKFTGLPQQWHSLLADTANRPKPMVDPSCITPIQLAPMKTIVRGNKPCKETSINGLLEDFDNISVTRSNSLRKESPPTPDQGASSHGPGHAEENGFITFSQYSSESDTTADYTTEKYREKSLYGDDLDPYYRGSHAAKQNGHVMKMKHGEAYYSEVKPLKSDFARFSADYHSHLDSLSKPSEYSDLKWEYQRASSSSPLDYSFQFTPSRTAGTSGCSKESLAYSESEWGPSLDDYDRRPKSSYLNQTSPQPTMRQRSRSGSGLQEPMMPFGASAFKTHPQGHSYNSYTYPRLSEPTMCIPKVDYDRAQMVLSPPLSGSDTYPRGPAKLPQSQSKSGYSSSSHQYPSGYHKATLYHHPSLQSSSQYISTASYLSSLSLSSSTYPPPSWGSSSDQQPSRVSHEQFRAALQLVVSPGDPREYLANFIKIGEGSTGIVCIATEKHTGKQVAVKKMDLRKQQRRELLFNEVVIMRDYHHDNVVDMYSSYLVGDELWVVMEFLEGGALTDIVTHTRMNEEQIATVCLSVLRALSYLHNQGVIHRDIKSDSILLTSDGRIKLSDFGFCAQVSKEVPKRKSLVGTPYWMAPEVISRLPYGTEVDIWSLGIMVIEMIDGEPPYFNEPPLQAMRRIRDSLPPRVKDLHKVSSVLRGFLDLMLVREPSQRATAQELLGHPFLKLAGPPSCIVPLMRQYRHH

[16] = molecular target: Mitogen-activated protein kinase 6 (Homo sapiens) (UniProt Q16659)
[17] = molecular target: Casein kinase I isoform gamma-3 (Homo sapiens) (UniProt Q9Y6M4)
[18] = molecular target: cAMP-dependent protein kinase catalytic subunit alpha (Homo sapiens) (UniProt P17612)
[19] = molecular target: Serine/threonine-protein kinase PAK 4 (Homo sapiens) (UniProt O96013)

Ribosomal protein S6 kinase alpha-3 (Homo sapiens), sequence (P51812 whole entry): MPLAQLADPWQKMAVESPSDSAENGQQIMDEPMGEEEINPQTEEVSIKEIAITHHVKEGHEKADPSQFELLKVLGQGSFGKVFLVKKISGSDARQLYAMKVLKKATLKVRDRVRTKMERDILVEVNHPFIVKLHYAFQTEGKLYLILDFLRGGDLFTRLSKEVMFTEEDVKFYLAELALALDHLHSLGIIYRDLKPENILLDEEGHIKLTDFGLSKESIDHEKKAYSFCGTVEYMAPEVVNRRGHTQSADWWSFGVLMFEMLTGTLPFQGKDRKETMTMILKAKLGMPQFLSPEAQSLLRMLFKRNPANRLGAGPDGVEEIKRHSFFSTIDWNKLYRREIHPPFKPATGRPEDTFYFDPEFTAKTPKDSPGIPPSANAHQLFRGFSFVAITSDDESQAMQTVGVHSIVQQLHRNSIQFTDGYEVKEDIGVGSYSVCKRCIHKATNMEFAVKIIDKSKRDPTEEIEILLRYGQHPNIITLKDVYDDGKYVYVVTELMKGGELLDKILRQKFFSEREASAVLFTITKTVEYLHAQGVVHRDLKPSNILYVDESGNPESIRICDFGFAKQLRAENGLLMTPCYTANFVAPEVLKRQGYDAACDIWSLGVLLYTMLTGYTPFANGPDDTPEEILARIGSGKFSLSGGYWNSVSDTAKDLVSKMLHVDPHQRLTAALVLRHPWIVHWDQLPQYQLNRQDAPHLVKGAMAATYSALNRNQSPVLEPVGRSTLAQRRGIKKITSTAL
Serine/threonine-protein kinase PAK 6 (Homo sapiens), sequence (Q9NQU5 whole entry, looked up): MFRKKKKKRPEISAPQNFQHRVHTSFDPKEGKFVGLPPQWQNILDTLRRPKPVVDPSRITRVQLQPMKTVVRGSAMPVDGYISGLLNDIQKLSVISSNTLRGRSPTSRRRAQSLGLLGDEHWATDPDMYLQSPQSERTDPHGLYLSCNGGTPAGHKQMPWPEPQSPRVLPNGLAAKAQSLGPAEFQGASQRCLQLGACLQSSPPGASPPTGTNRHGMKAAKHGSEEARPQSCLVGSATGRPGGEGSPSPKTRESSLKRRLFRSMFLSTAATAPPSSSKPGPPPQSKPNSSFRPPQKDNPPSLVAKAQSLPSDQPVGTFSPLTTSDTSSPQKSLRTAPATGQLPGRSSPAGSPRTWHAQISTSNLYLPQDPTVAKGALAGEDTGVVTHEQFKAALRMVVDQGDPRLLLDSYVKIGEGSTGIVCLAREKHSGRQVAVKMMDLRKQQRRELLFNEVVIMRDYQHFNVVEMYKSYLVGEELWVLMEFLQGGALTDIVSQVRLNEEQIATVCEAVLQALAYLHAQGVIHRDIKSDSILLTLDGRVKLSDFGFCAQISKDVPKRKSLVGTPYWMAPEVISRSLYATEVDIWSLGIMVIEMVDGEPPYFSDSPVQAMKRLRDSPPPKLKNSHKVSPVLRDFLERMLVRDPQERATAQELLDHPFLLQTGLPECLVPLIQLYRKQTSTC

For `C[S+]([O-])c1ccc(CSc2nc(-c3ccc(F)cc3)c(-c3ccncc3)[nH]2)cc1` (stereo not drawn), the ΔTm [1] was 0 °C, the ΔTm [2] was 0.1 °C and the ΔTm [3] was -0.8 °C. For the same compound, the ΔTm [4] was 1.5 °C, the ΔTm [5] was 0.1 °C and the ΔTm [6] was 0.1 °C. It also gave a ΔTm [7] of 0 °C, a ΔTm [8] of -0.1 °C and a ΔTm [9] of 0.2 °C. For the same compound, the ΔTm [10] was -0.4 °C, the ΔTm [11] was 0.1 °C and the ΔTm [12] was 0.8 °C. For the same compound, the ΔTm [13] was 0.1 °C, the ΔTm [14] was 0.6 °C and the ΔTm [15] was 0.4 °C. For the same compound, the ΔTm [16] was -0.2 °C, the ΔTm [17] was -0.1 °C and the ΔTm [18] was -0.2 °C. It also gave a ΔTm [19] of 0.1 °C.

`CCN(CC)CCNC(=O)c1c(C)[nH]c(/C=C2\C(=O)Nc3ccc(Cl)cc32)c1C` [SU-11652] gave a ΔTm [1] of 4.4 °C, a ΔTm [2] of 8.5 °C and a ΔTm [3] of 0.3 °C. The ΔTm [4] was -0.4 °C, the ΔTm [5] was 2.4 °C and the ΔTm [6] was 8.3 °C. It also gave a ΔTm [7] of 3.3 °C, a ΔTm [8] of 6.2 °C and a ΔTm [9] of 1.6 °C. It also gave a ΔTm [10] of 4.7 °C, a ΔTm [11] of 0.7 °C and a ΔTm [12] of 8.1 °C. The ΔTm [13] was 10.2 °C, the ΔTm [14] was 7.4 °C and the ΔTm [15] was 4.7 °C. For the same compound, the ΔTm [16] was 0.8 °C, the ΔTm [17] was 3.8 °C and the ΔTm [18] was 2 °C. For the same compound, the ΔTm [19] was 6.4 °C.

`Cn1cnc2c(NCc3ccccc3)nc(NCCO)nc21` [OLOMOUCINE] showed a ΔTm [1] of -0.5 °C, a ΔTm [2] of 0.1 °C and a ΔTm [3] of 0.1 °C. For the same compound, the ΔTm [4] was -0.1 °C, the ΔTm [5] was 0 °C and the ΔTm [6] was 0.3 °C. The ΔTm [7] was 0.1 °C, the ΔTm [8] was 0.1 °C and the ΔTm [9] was 0.3 °C. The ΔTm [10] was -0.1 °C, the ΔTm [11] was 0.2 °C and the ΔTm [12] was 0.5 °C. For the same compound, the ΔTm [13] was 0.3 °C, the ΔTm [14] was 0 °C and the ΔTm [15] was -0.1 °C. The ΔTm [16] was 0.2 °C, the ΔTm [17] was 0 °C and the ΔTm [18] was -0.1 °C. For the same compound, the ΔTm [19] was 0.4 °C.

With `C[S+]([O-])c1ccc(-c2nc(-c3ccc(F)cc3)c(-c3ccncc3)[nH]2)cc1` (stereo not drawn) [SB-203580] the ΔTm [1] was 0 °C, the ΔTm [2] was 0.3 °C and the ΔTm [3] was 0 °C. The ΔTm [4] was 9.6 °C, the ΔTm [5] was -0.1 °C and the ΔTm [6] was 2 °C. For the same compound, the ΔTm [7] was 0 °C, the ΔTm [8] was 0 °C and the ΔTm [9] was -0.2 °C. It also gave a ΔTm [10] of 0 °C, a ΔTm [11] of 0.6 °C and a ΔTm [12] of 2.7 °C. For the same compound, the ΔTm [13] was 1 °C, the ΔTm [14] was 0.9 °C and the ΔTm [15] was -0.1 °C. It also gave a ΔTm [16] of 0 °C, a ΔTm [17] of 0.4 °C and a ΔTm [18] of 0 °C. It also gave a ΔTm [19] of 0.1 °C.

`Cc1ccc(NC(=O)c2cccc(N(C)C)c2)cc1NC(=O)c1ccc(O)cc1` showed a ΔTm [1] of 0.6 °C, a ΔTm [2] of 0.2 °C and a ΔTm [3] of -0.1 °C. It also gave a ΔTm [4] of 4.1 °C, a ΔTm [5] of 0 °C and a ΔTm [6] of 0.1 °C. For the same compound, the ΔTm [7] was 0 °C, the ΔTm [8] was 0.1 °C and the ΔTm [9] was 0.2 °C. It also gave a ΔTm [10] of 0.6 °C, a ΔTm [11] of 0.2 °C and a ΔTm [12] of 0.1 °C. The ΔTm [13] was 0 °C, the ΔTm [14] was -0.3 °C and the ΔTm [15] was 0.6 °C. It also gave a ΔTm [16] of 0.4 °C, a ΔTm [17] of 0.3 °C and a ΔTm [18] of 0.9 °C. It also gave a ΔTm [19] of 0.4 °C.

`Cl.Cn1cc(C2=C(c3ccc4cc5n(c4c3)CCC(CN)C5)C(=O)NC2=O)c2ccccc21` (stereo not drawn) was tested, and the ΔTm [1] was 0.7 °C, the ΔTm [2] was 6 °C and the ΔTm [3] was 0.6 °C. For the same compound, the ΔTm [4] was -0.1 °C, the ΔTm [5] was 1.1 °C and the ΔTm [6] was 0.3 °C. For the same compound, the ΔTm [7] was 0.1 °C, the ΔTm [8] was 1.1 °C and the ΔTm [9] was -0.2 °C. The ΔTm [10] was 4.7 °C, the ΔTm [11] was 0.4 °C and the ΔTm [12] was 5.3 °C. For the same compound, the ΔTm [13] was 7.1 °C, the ΔTm [14] was 0.7 °C and the ΔTm [15] was 0.1 °C. For the same compound, the ΔTm [16] was 0.7 °C, the ΔTm [17] was 0.6 °C and the ΔTm [18] was 1.5 °C. It also gave a ΔTm [19] of 1.6 °C.

`O=C1NC(=O)c2c1c1c3ccccc3n3c1c1c2c2ccccc2n1C1CCC3O1` showed a ΔTm [1] of 1.5 °C, a ΔTm [2] of 0 °C and a ΔTm [3] of 0 °C. For the same compound, the ΔTm [4] was -0.1 °C, the ΔTm [5] was -0.2 °C and the ΔTm [6] was 7.6 °C. For the same compound, the ΔTm [7] was -0.2 °C, the ΔTm [8] was 0 °C and the ΔTm [9] was -0.2 °C. For the same compound, the ΔTm [10] was 7.3 °C, the ΔTm [11] was 0.1 °C and the ΔTm [12] was -0.5 °C. For the same compound, the ΔTm [13] was 4.7 °C, the ΔTm [14] was 2.1 °C and the ΔTm [15] was 2.4 °C. It also gave a ΔTm [16] of 0.5 °C, a ΔTm [17] of 0.3 °C and a ΔTm [18] of 0.3 °C. The ΔTm [19] was 2.8 °C.
